Assay results from paper PMC11359831, “Stepwise Structural Simplification of the Dihydroxyanthraquinone Moiety of a Multitarget Rhein-Based Anti-Alzheimer Lead to Improve Drug Metabolism and Pharmacokinetic Properties” (Pharmaceutics, 2024).
Values after ≈ are worked out from the molar mass of the structure shown.

Legend:
[1] = PAMPA-BBB, drugs used for assay validation
Procedure: The parallel artificial membrane permeability assay for the blood–brain barrier (PAMPA-BBB) [41] was used to assess the in vitro brain permeability of the new compounds. For the assay, the compounds were dissolved in mixtures of PBS and ethanol (70:30).

physchem = settings: 37 °C, aqueous buffer, kinetic from dmso stock
Procedure: The resulting solutions were incubated at 37 °C. After 2 h incubation, the samples were read using a BMG LABTECH NEPHELOstar Plus laser nephelometer (Ortenberg, Germany).

[2] = target: T1, human recombinant BACE-1 (hBACE-1) (Homo sapiens, UniProt P56817); assay: In vitro hBACE-1 inhibition (fluorometric method); format: biochemical
T1 construct: purchased Invitrogen, Carlsbad, CA, USA
T1 sequence (P56817 46-501): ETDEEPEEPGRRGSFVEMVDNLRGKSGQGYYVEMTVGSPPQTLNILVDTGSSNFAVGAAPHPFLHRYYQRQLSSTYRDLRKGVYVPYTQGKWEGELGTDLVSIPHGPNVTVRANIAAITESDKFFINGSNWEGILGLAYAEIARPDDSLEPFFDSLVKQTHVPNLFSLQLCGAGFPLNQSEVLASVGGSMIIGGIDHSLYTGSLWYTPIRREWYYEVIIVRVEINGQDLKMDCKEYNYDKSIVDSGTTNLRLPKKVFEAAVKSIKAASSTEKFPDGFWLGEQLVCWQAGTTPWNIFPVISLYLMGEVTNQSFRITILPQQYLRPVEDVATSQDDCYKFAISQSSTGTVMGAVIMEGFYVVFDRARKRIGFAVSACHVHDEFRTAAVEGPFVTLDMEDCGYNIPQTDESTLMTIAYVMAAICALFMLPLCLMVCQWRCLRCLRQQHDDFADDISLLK
Procedure: The inhibition of human recombinant BACE-1 (hBACE-1) (Invitrogen, Carlsbad, CA, USA) by hybrids 4–7 was evaluated by a fluorometric method. The substrate (Panvera peptide, 10 μL, 250 nM final concentration) was added to a solution (10 μL) of hybrids 4–7 or buffer in control wells (20 mM sodium acetate at pH 4.5, with 0.1% w/v CHAPS). After the addition of the enzyme (10 μL, 12.91 mU), the assay solution was incubated for 1 h at 37 °C. Thereafter, STOP solution (10 μL, 2.5 M sodium acetate) was added and the fluorescence was read at […]. The DMSO concentration in the assay solution was kept <5% (v/v) to ensure no significant loss of BACE-1 activity. The background signal, determined in control wells with all the components of the assay but BACE-1, was subtracted. The fluorescence intensities in the presence of increasing concentrations or in the absence of hybrids 4–7 were compared to calculate the percent of enzyme inhibition produced by the compounds, by applying the following expression: 100 − (IFi/IFo × 100), in which IFi and IFo are the fluorescence intensities in the presence and in the absence of the compounds, respectively. Additionally, the IC50 values were calculated (GraphPad Prism 4.03 software, GraphPad Software Inc., San Diego, CA, USA) and are given as the mean ± SEM of at least two experiments, each performed in triplicate.

tau aggregation = target: T2, tau aggregation (Homo sapiens, UniProt P10636); assay: Tau aggregation inhibition in genetically modified E. coli cells (Th-S fluorescence); format: cell-based, Escherichia coli; settings: live E. coli cells overexpressing tau
T2 construct: expressed in transfected cells; host or cells: E. coli BL21 (DE3) bearing pTARA and pRKT42
T2 sequence (P10636 other isoform, or with tags, fused parts or gaps): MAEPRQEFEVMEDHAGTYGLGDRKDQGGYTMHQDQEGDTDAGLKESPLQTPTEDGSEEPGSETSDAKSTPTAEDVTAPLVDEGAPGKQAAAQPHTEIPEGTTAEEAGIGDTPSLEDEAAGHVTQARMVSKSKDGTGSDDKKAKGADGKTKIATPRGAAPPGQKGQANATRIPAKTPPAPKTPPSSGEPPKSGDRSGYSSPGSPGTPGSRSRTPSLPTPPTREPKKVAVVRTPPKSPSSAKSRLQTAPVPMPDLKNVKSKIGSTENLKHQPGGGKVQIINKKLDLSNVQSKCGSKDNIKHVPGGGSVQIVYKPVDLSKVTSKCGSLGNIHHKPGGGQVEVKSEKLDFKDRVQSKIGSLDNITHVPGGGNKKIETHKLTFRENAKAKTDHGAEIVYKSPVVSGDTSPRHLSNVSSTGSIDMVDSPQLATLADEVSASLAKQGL
Procedure: For tau overexpression, M9 minimal medium (10 mL) containing glucose (0.5%), ampicillin (50 μg/mL), chloramphenicol (12.5 μg/mL), and E. coli BL21 (DE3) cells bearing the pTARA plasmid, which carries the RNA polymerase gene of the T7 phage (T7RP) under control of the PBAD promoter, and subsequent transformation with the pRKT42 vector were used instead. In this case, the overnight culture for a 1:500 dilution was added to fresh M9 minimal medium containing glucose (0.5%), chloramphenicol (12.5 μg/mL), ampicillin (50 μg/mL), and Th-S (250 µM).
(§1) For Aβ42 overexpression, the corresponding E. coli cell cultures were kept growing overnight (37 °C; 250 rpm) until they reached an OD600 = 0.6. These cultures (980 μL) were added to a mixture of 10 μL of a solution of the new compounds in DMSO and 10 μL of 100 mM isopropyl 1-thio-β-D-galactopyranoside (IPTG), to reach a final compound concentration of 10 μM. The same procedure was used for tau overexpression but employing 10 μL of 25% arabinose instead of IPTG. The resulting E. coli cultures were kept growing overnight (37 °C; 1400 rpm) using an Eppendorf Thermomixer (Hamburg, Germany). To prepare a negative control for the assay, showing the highest amount of the amyloidogenic protein, the same quantity of DMSO, without the compounds to be tested, was added to the sample. With the double purpose of obtaining positive controls devoid of the amyloidogenic proteins and assessing the potential intrinsic toxicity of the new compounds, we also prepared samples that had not been treated with either IPTG or arabinose (non-induced samples).
(§2) To assess the inhibitory activity of compounds 4–7 on Aβ42 and tau aggregation within E. coli cells, a fluorescence assay was employed, using Th-S ([…] stock solution, T1892, Sigma, St. Louis, MO, USA) in double-distilled water (Milli-Q system, Millipore, Bay City, MI, USA) and an Aminco Bowman Series 2 luminescence spectrophotometer (Aminco-Bowman AB2, SLM Aminco, Rochester, NY, USA), working at 25 °C in the wavelength range of 460–600 nm, with λex = 445 nm, slit widths of 4 nm, and λem = 485 nm. The results are given as the average of nine independent experiments, each performed in triplicate.

Aβ42 aggregation = target: T3, Aβ42 aggregation (Homo sapiens, UniProt P05067); assay: Aβ42 aggregation inhibition in genetically modified E. coli cells (Th-S fluorescence); format: cell-based, Escherichia coli; settings: live E. coli cells overexpressing Aβ42
T3 construct: expressed in transfected cells; host or cells: E. coli BL21 (DE3) bearing pET28a-Aβ42
T3 sequence (P05067 672-713): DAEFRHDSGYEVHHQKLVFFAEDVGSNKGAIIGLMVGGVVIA
Procedure: For Aβ42 overexpression, M9 minimal medium (10 mL) containing kanamycin (50 μg/mL) was added to a colony of E. coli BL21 (DE3) competent cells, bearing the pET28a plasmid (Novagen, Inc., Madison, WI, USA), which contains the DNA sequence encoding for Aβ42. After overnight culture, the volume necessary to obtain a 1:500 dilution was added to fresh M9 minimal medium that contained kanamycin (50 μg/mL) and thioflavin-S (Th-S, 250 µM).
as §1, §2

CN1C(C(=O)Nc2ccccn2)=C(O)c2ccccc2S1(=O)=O [Piroxicam, reference compound]
Experimental Pe Value [1]: 2.2 ± 0.1 10^−6 cm s^−1

CC(=O)[C@H]1CC[C@H]2[C@@H]3CCC4=CC(=O)CC[C@]4(C)[C@H]3CC[C@]12C [Progesterone, reference compound]
solubility at 2 h (physchem; Solubility): 5.9 µM (≈ 1.86 µg/mL)

O=c1c(O)c(-c2cc(O)c(O)c(O)c2)oc2cc(O)cc(O)c12 [Myr, myricetin, reference compound]
IC50 [2]: 4.18 ± 0.5 µM

O=C(NCCCCCCCCNc1c2c(nc3cc(Cl)ccc13)CCCC2)c1ccc2nc(-c3ccc(Cl)cc3)c3c(c2c1)NCCC3 [DP128, reference compound]
Tau Aggregation % inh. @10 µM (tau aggregation): 69.9 ± 0.7% | Aβ42 Aggregation % inh. @10 µM (Aβ42 aggregation): 78.1 ± 1.7%

C[C@H]1O[C@@H](O[C@H]2[C@@H](O)C[C@H](O[C@H]3[C@@H](O)C[C@H](O[C@H]4CC[C@@]5(C)[C@H](CC[C@@H]6[C@@H]5C[C@@H](O)[C@]5(C)[C@@H](C7=CC(=O)OC7)CC[C@]65O)C4)O[C@@H]3C)O[C@@H]2C)C[C@H](O)[C@@H]1O [digoxin, reference compound]
solubility at 2 h (physchem): 86.3 µM (≈ 67.4 µg/mL)
